How the values were obtained:
HBV [1] = assay: Anti-HBV activity in stable transfected HepG2.2.15 cell line (HBV DNA from secreted virions, realtime PCR); type: cell-based
HBV [2] = assay: Anti-HBV activity in HepG2.117 cell line (Tet-off, intracellular HBV DNA, realtime PCR); type: cell-based
[3] = Cytotoxicity in HepG2 cells, 4 days, Resazurin assay; conditions: human, HepG2 cells
[4] = Hepatitis B virus, HepG2.2.15, 144 h, HepG2.2.15 cells, 6 days of treatment, secreted virion HBV DNA, read-out: HepG2 2.15 EC50
[5] = Hepatitis B virus, HepG2.117, 72 h, HepG2.117 cells, 3 days of treatment, intracellular HBV DNA, read-out: HepG2 117 EC50

Row | SMILES | EC50 (HBV [1]; [4]) | EC50 (HBV [2]; [5]) | CC50 at 4 days [3] | EC50 (HBV [1]; HepG2.2.15 cells, 6 days of treatment, secreted virion HBV DNA, read-out: HepG2 2.15 EC50) | EC50 (HBV [2]; HepG2.117 cells, 3 days of treatment, intracellular HBV DNA, read-out: HepG2 117 EC50) | EC50 (HBV [1]; Hepatitis B virus, HepG2.2.15, 144 h, read-out: HepG2 2.15 EC50 (μM)) | EC50 (HBV [2]; Hepatitis B virus, HepG2.117, 72 h, read-out: HepG2 117 EC50 (μM))
1 | CC1(NS(=O)(=O)c2cc(Cl)cc(C(=O)Nc3ccc(F)c(C(F)F)c3)c2F)COC1 [Compound 217] | 0.2 µM | 0.6 µM | > 25 µM | – | – | – | –
2 | Cc1cc(NC(=O)c2cccc(S(=O)(=O)NCC(F)F)c2)ccc1F [Compound 227] | 0.16 µM | 0.71 µM | > 25 µM | – | – | – | –
3 | O=C(Nc1cc(F)cc(F)c1)c1cccc(S(=O)(=O)NC2CCCC2)c1 [Compound 15] | 0.28 µM | 0.78 µM | 10.1 µM | – | – | – | –
4 | Cc1cc(NC(=O)c2cccc(S(=O)(=O)N[C@@H](C)C3CC3)c2)ccc1F [Compound 174] | 0.47 µM | 2.84 µM | > 25 µM | – | – | – | –
5 | Cc1cc(NC(=O)c2cc(S(=O)(=O)NC(C)C)oc2C)ccc1F [Compound 230] | 0.73 µM | 1.52 µM | > 25 µM | – | – | – | –
6 | O=C(Nc1ccc(F)cc1)c1cc(S(=O)(=O)N2CCCCC2)ccc1Cl [Compound 54] | 1.63 µM | 1.55 µM | > 50 µM | – | – | – | –
7 | Cc1cc(NC(=O)c2cccc(S(=O)(=O)N[C@@H]3CCc4ccccc4[C@@H]3O)c2)ccc1F [Compound 137] | 0.66 µM | 0.92 µM | 23.7 µM | – | – | – | –
8 | Cc1cc(NC(=O)c2cccc(S(=O)(=O)NC(C)c3ccccn3)c2)ccc1F (stereo not drawn) [Compound 163] | 0.53 µM | 8.53 µM | > 25 µM | – | – | – | –
9 | Cc1cc(NC(=O)c2cccc(S(=O)(=O)N[C@H]3CC[C@H](O)CC3)c2)ccc1F [Compound 133] | 0.6 µM | 1.69 µM | > 25 µM | – | – | – | –
10 | Cc1cc(NC(=O)c2cccc(S(=O)(=O)NC3(C(F)(F)F)CC3)c2)ccc1F [Compound 183] | 0.08 µM | 0.84 µM | > 25 µM | – | – | – | –
11 | CC1(NS(=O)(=O)c2cccc(C(=O)Nc3ccc(F)c(O)c3)c2)COC1 [Compound 108] | 7.2 µM | 9.27 µM | > 25 µM | – | – | – | –
12 | Cc1cc(NC(=O)c2cccc(S(=O)(=O)N[C@@H](C)[C@H](O)c3ccccc3)c2)ccc1F [Compound 143] | 0.91 µM | 2.66 µM | > 25 µM | – | – | – | –
13 | O=C(Nc1ccc(F)c(C(F)F)c1)c1cccc(S(=O)(=O)N[C@H]2CCOC2)c1F [Compound 220] | 0.11 µM | 0.09 µM | > 25 µM | – | – | – | –
14 | CC1(NS(=O)(=O)c2ccc(Cl)c(C(=O)Nc3ccc(F)c(C(F)(F)F)c3)c2)COC1 [Compound 233] | > 1 µM | > 1 µM | > 25 µM | – | – | – | –
15 | O=C(Nc1ccc(F)cc1)c1cc(S(=O)(=O)N2CCC3(CC2)OCCO3)ccc1F [Compound 52] | 1.94 µM | 2.44 µM | > 50 µM | – | – | – | –
16 | O=C(Nc1ccc(F)cc1)c1cccc(S(=O)(=O)N2CCCCC2=O)c1 [Compound 69] | 3.9 µM | 10.4 µM | > 25 µM | – | – | – | –
17 | Cc1cc(NC(=O)c2cccc(S(=O)(=O)NC3CCC(O)C3)c2)ccc1F (single isomer, unassigned) [Compound 145a, N-(4-fluoro-3-methyl-phenyl)-3-[[(1R,3S)-3-hydroxycyclopentyl]sulfamoyl]benzamide or N-(4-fluoro-3-methyl-phenyl)-3-[[(1S,3R)-3-hydroxycyclopentyl]sulfamoyl]benzamide] | – | – | > 25 µM | 0.14 µM | 0.21 µM | – | –
18 | C=Cc1cc(NC(=O)c2cccc(S(=O)(=O)NC3(C)COC3)c2)ccc1F [Compound 110] | 0.66 µM | 0.85 µM | > 25 µM | – | – | – | –
19 | Cc1cc(NC(=O)c2cccc(S(=O)(=O)NC(C)Cc3ccccc3)c2)ccc1F (stereo not drawn) [Compound 169] | – | – | 14.9 µM | – | – | 0.24 µM | 1.41 µM
20 | Cc1cc(NC(=O)c2cccc(S(=O)(=O)N[C@H]3C[C@H](O)C3)c2)ccc1F [Compound 184a] | 0.31 µM | 0.77 µM | > 25 µM | – | – | – | –
21 | Cc1cc(NC(=O)c2cc(S(=O)(=O)NC3(C)COC3)ccc2C)ccc1F [Compound 122] | 0.13 µM | 0.18 µM | > 25 µM | – | – | – | –
22 | O=C(Nc1ccccc1)c1cccc(S(=O)(=O)NC2CCCCC2)n1 [Compound 65] | 10.8 µM | > 25 µM | 35.3 µM | – | – | – | –
23 | Cc1cc(NC(=O)c2cccc(S(=O)(=O)NCC(F)(F)F)c2)ccc1F [Compound 228] | 0.17 µM | 1.19 µM | > 25 µM | – | – | – | –
24 | Cc1cc(NC(=O)c2cccc(S(=O)(=O)NC(C)C)c2)cc(C)c1F [Compound 186] | 0.2 µM | 1.34 µM | > 25 µM | – | – | – | –
25 | Cc1cc(NC(=O)c2cccc(S(=O)(=O)NC3CCC(F)(F)CC3)c2)ccc1F [Compound 149] | 0.22 µM | 0.73 µM | 20.8 µM | – | – | – | –
26 | Cc1cc(NC(=O)c2cccc(S(=O)(=O)NC3(C)CC3)c2)ccc1F [Compound 94] | 0.15 µM | 0.23 µM | > 25 µM | – | – | – | –

Row | SMILES | EC50 (HBV [1]; [4]) | EC50 (HBV [2]; [5]) | CC50 at 4 days [3] | EC50 (HBV [1]; HepG2.2.15 cells, 6 days of treatment, secreted virion HBV DNA, read-out: HepG2 2.15 EC50) | EC50 (HBV [2]; HepG2.117 cells, 3 days of treatment, intracellular HBV DNA, read-out: HepG2 117 EC50) | EC50 (HBV [1]; Hepatitis B virus, HepG2.2.15, 144 h, read-out: HepG2 2.15 EC50 (μM)) | EC50 (HBV [2]; Hepatitis B virus, HepG2.117, 72 h, read-out: HepG2 117 EC50 (μM))
27 | Cc1ccc(S(=O)(=O)NC2(C)COC2)c(F)c1C(=O)Nc1ccc(F)c(F)c1 [Compound 194] | 0.38 µM | 0.31 µM | > 25 µM | – | – | – | –
28 | Cc1cc(NC(=O)c2cc(F)cc(S(=O)(=O)NC(C)C)c2)ccc1F [Compound 240] | 0.4 µM | 2.86 µM | > 25 µM | – | – | – | –
29 | O=C(Nc1ccc(F)c(F)c1)c1cccc(S(=O)(=O)NC2CCCC2)c1 [Compound 14] | 0.09 µM | 0.36 µM | 11.7 µM | – | – | – | –
30 | Cc1cc(NC(=O)c2cccc(S(=O)(=O)N[C@@H]3CCCC[C@H]3O)c2)ccc1F (racemic) [Compound 130] | 0.88 µM | 1.03 µM | > 25 µM | – | – | – | –
31 | Cc1cc(NC(=O)c2cccc(S(=O)(=O)N[C@@H](C)C3CCCCC3)c2)ccc1F [Compound 148] | 0.9 µM | 3.11 µM | 18.2 µM | – | – | – | –
32 | COC(=O)N1CC(NS(=O)(=O)c2cccc(C(=O)Nc3ccc(F)c(C)c3)c2)C1 [Compound 185] | 0.22 µM | 0.62 µM | > 25 µM | – | – | – | –
33 | Cc1cc(NC(=O)c2cccc(S(=O)(=O)NC3CCC(F)(F)C3)c2)ccc1F (stereo not drawn) [Compound 229] | 0.2 µM | 0.49 µM | > 25 µM | – | – | – | –
34 | Cc1[nH]c(C(=O)Nc2ccccc2)c(C)c1S(=O)(=O)N1CCCCC1 [Compound 62] | 7.06 µM | 10.1 µM | > 50 µM | – | – | – | –
35 | CC[C@@H](C)NS(=O)(=O)c1cccc(C(=O)Nc2ccc(F)c(C)c2)c1 [Compound 98] | 0.1 µM | 0.31 µM | > 25 µM | – | – | – | –
36 | Cc1cc(NC(=O)c2cccc(S(=O)(=O)NC(C)c3cccnc3)c2)ccc1F (stereo not drawn) [Compound 162] | 0.17 µM | 1.26 µM | > 25 µM | – | – | – | –
37 | COC(=O)N1CCC(NS(=O)(=O)c2cccc(C(=O)Nc3ccc(F)c(C)c3)c2)C1 (stereo not drawn) [Compound 158] | 0.15 µM | 0.5 µM | > 25 µM | – | – | – | –
38 | Cc1cc(NC(=O)c2cccc(S(=O)(=O)NC3CCC(=O)N(C)C3)c2)ccc1F (stereo not drawn) [Compound 180] | 0.76 µM | 1.3 µM | > 25 µM | – | – | – | –
39 | Cc1cc(NC(=O)c2cccc(S(=O)(=O)NC(C)Cc3ccccn3)c2)ccc1F (stereo not drawn) [Compound 120] | 0.53 µM | 0.51 µM | > 25 µM | – | – | – | –
40 | N#Cc1cc(NC(=O)c2cccc(S(=O)(=O)N[C@H]3CCOC3)c2)ccc1F [Compound 105] | 0.81 µM | 0.98 µM | > 25 µM | – | – | – | –
41 | Cc1cc(NC(=O)c2cccc(S(=O)(=O)NC3Cc4ccccc4C3)c2)ccc1F [Compound 168] | 0.27 µM | 0.37 µM | 11.8 µM | – | – | – | –
42 | C=CC(C)NS(=O)(=O)c1cccc(C(=O)Nc2ccc(F)c(C)c2)c1 (stereo not drawn) [Compound 150] | 0.1 µM | 0.73 µM | > 25 µM | – | – | – | –
43 | Cc1cc(NC(=O)c2cccc(S(=O)(=O)NC(C)C)c2)ccc1F [Compound 73] | 0.073 µM | 0.15 µM | > 25 µM | – | – | – | –
44 | CC(C)NS(=O)(=O)c1cccc(C(=O)Nc2ccc(F)c(C(C)C)c2)c1 [Compound 95] | 1.4 µM | 2.79 µM | > 25 µM | – | – | – | –
45 | O=C(Nc1ccc(F)c(Cl)c1)c1c(F)ccc(S(=O)(=O)N[C@H]2CCOC2)c1F [Compound 201] | 0.06 µM | 0.06 µM | > 25 µM | – | – | – | –
46 | Cc1cc(NC(=O)c2cccc(S(=O)(=O)N[C@H]3C[C@@H](O)C3)c2)ccc1F [Compound 184b] | 0.3 µM | 0.33 µM | > 25 µM | – | – | – | –
47 | Cc1cc(NC(=O)c2cc(S(=O)(=O)N[C@H]3CCOC3)ccc2F)ccc1F [Compound 236] | 0.48 µM | 1.58 µM | > 25 µM | – | – | – | –
48 | CCC(C)(C)NS(=O)(=O)c1cccc(C(=O)Nc2ccc(F)c(C)c2)c1 [Compound 86] | 0.14 µM | 0.11 µM | > 25 µM | – | – | – | –
49 | COc1ccc(NC(=O)c2cccc(S(=O)(=O)N[C@H]3CCOC3)c2)cc1C [Compound 107] | 7.82 µM | 13.8 µM | > 25 µM | – | – | – | –
50 | O=C(Nc1ccc(F)c(F)c1)c1cc(S(=O)(=O)N[C@H]2CCOC2)ccc1F [Compound 101] | 0.43 µM | 1.51 µM | > 25 µM | – | – | – | –
51 | Cc1cc(NC(=O)c2cccc(S(=O)(=O)NC3Cc4ccccc4C3O)c2)ccc1F (stereo not drawn) [Compound 141] | 0.36 µM | 0.6 µM | > 25 µM | – | – | – | –
52 | CCC(C)(C)NS(=O)(=O)c1cccc(C(=O)Nc2ccc(F)cc2)c1 [Compound 79] | 0.96 µM | 1.69 µM | > 25 µM | – | – | – | –

Source: patent publication US10676429B2, “Sulfamoyl-arylamides and the use thereof as medicaments for the treatment of hepatitis B” (priority 2012, dated 2020)
